# Assay results reported in patent US10064800B2, “Transglutaminase activator” (Kao Corporation, priority 2012, dated 2018).
# Where two headings read alike, the source gives them in different places.
# Columns and labels:
# [1] = tested on: transglutaminase; assay: Measurement of transglutaminase activity in lysate of treated keratinocytes (Transglutaminase Colorimetric Microassay Kit); format: cell-based, human; conditions: for Transglutaminase activity: HEKn cells, 3 days, relative value, n = 3
# [2] = tested on: Normal human epidermal keratinocytes NHEK(F); assay: Verification of ceramide production enhancing effect (TLC of cell lipids); format: cell-based; conditions: 3 days, 0.1 μM, relative value, 50 vol % ethanol = 1
# Experimental: Normal human epidermal keratinocytes (trade name: NHEK(F), manufactured by Kurabo Industries, Ltd.) were cultured under the conditions of 37° C. and 5% CO2, in a culture medium (trade name: EpiLife-KG2, manufactured by Kurabo Industries, Ltd.) using a culture plate.
# Thereafter, the culture medium was exchanged with EpiLife-KG2 without growth factors such as epidermal growth factor, and a dilution prepared from the extract from Justicia procumbens prepared in the Preparation Example 1-2, the concentration of which was adjusted to 1 w/v % in terms of solids content, […] Alternatively, the culture medium was exchanged with EpiLife-KG2 without growth factors such as epidermal growth factor, and a dilution prepared from the extract from Peristrophe japonica prepared in the Preparation Example 2-2, the concentration of which was adjusted to 1 w/v % in terms of solids content, was added to the culture fluid in an amount of 0.1%. […]
# Further, 0.1 N NaOH and a 1% aqueous SDS solution were added to the cells from which lipids had been extracted, and the mixture was heated at 60° C. for 2 hours to thereby solubilize proteins. […] The amount of proteins was quantified by the BCA method. […]
# A ceramide amount was measured using recovered cells in a manner similar to Test Example 2-1. […]
# [3] = tested on: IVL gene; assay: Evaluation of IVL gene expression (Real-time RT-PCR, HaCaT); format: cell-based, human; conditions: 24 hours, 0.01 μM, corrected by RPLPO, relative value, DMSO = 1
# Experimental: Human epidermal keratinocyte line HaCaT was cultured in a culture medium in which 10% fetal calf serum inactivated, and 1% penicillin-streptomycin (manufactured by Gibco Laboratories) were added to DMEM (manufactured by Gibco Laboratories), under conditions of 37° C. and 5% CO2.
# In a 6-well plate, HaCaT cells were seeded in an amount of 5×10^4 pieces/well, and cultured. On the following day, exchange was carried out for a culture medium containing the exemplified compound (18) at a final concentration shown in Table 10, and culture was further carried out for 24 hours. In place of the exemplified compound (18), as a control, exchange was carried out for a culture medium containing at a final concentration of 0.1% v/v DMSO being a solvent, and culture was further carried out for 24 hours, and thus the resultant cultured product was used. After 24 hours from addition of the exemplified compound (18), the cells were washed twice using PBS(−), and total RNA was extracted using RNeasy (registered trademark) Mini Kit (manufactured by QIAGEN). A concentration of total RNA was measured, and a fixed amount of total RNA was used as a template, and a reverse transcription reaction was carried out using High capacity RNA-to-cDNA Kit (trade name, manufactured by Applied Biosystems, Inc.).
# IVL gene expression was quantitatively determined from the resultant cDNA by Real-time RT-PCR. […]
# [4] = evaluated conc. 1 μM, control DMSO = 1
# [5] = evaluated conc. 0.01 μM, control DMSO = 1
# [6] = evaluated conc. 0.1 μM, control DMSO = 1
# [7] = fractions from Justicia procumbens extract, result in words
Compound,"Transglutaminase activity [1, 4]","Transglutaminase activity [1, 5]","Transglutaminase activity [1, 6]",other results
"COc1cc([C@@H]2c3cc4c(c(OC)c3C[C@H]3COC(=O)[C@@H]32)OCO4)cc(OC)c1OC [(1), reference compound]",0.24 ± 0.21,–,–,–
"COc1cc([C@@H]2c3cc4c(cc3C[C@H]3COC(=O)[C@@H]32)OCO4)cc(OC)c1OC [(2), reference compound]",0.20 ± 0.18,–,–,–
"COc1c2c(c(-c3ccc4c(c3)OCO4)c3cc4c(cc13)OCO4)C(=O)OC2 [(3), reference compound]",0.70 ± 0.24,0.75 ± 0.49,0.97 ± 0.43,–
"COc1cc2c(OC)c3c(c(-c4cc5c(cc4O)OCO5)c2cc1OC)C(=O)OC3 [(4), reference compound]",0.22 ± 0.08,0.60 ± 0.28,0.39 ± 0.10,–
"O=C1OCc2cc3ccccc3c(-c3ccccc3)c21 [Exemplified compound (11), 9-phenylnaphtho[2,3-c]furan-1(3H)-one]",1.48 ± 0.22,1.10 ± 0.22,1.29 ± 0.40,–
"COc1cc2cc3c(c(-c4ccc5c(c4)OCO5)c2cc1OC)C(=O)OC3 [Exemplified compound (12), 6,7-dimethoxy-9-(1,3-benzodioxol-5-yl)naphtho[2,3-c]furan-1(3H)-one]",–,1.20 ± 0.16,2.80 ± 1.73,"Transglutaminase activity of isolated HPLC fraction [1, 7]: confirmed to exist; Ceramide amount (Average value in n = 2) [2]: 1.30"
"COc1cc2c(O)c3c(c(-c4ccc5c(c4)OCO5)c2cc1OC)C(=O)OC3 [Exemplified compound (13), 4-hydroxy-6,7-dimethoxy-9-(1,3-benzodioxol-5-yl)naphtho[2,3-c]furan-1(3H)-one]",–,1.95 ± 0.53,1.75 ± 0.61,–
"COc1cc2c(OC)c3c(c(-c4ccc5c(c4)OCO5)c2cc1OC)C(=O)OC3 [Exemplified compound (14), 4,6,7-trimethoxy-9-(1,3-benzodioxol-5-yl)naphtho[2,3-c]furan-1(3H)-one]",2.19 ± 0.98,1.22 ± 0.51,2.42 ± 0.55,"Transglutaminase activity of isolated HPLC fraction [1, 7]: confirmed to exist"
"CCOc1c2c(c(-c3ccc4c(c3)OCO4)c3cc(OC)c(OC)cc13)C(=O)OC2 [Exemplified compound (15), 4-ethoxy-6,7-dimethoxy-9-(1,3-benzodioxol-5-yl)naphtho[2,3-c]furan-1(3H)-one]",1.66 ± 0.33,1.25 ± 0.22,1.33 ± 0.39,–
"COc1cc2c(OC(C)=O)c3c(c(-c4ccc5c(c4)OCO5)c2cc1OC)C(=O)OC3 [Exemplified compound (16), 4-acetoxy-6,7-dimethoxy-9-(1,3-benzodioxol-5-yl)naphtho[2,3-c]furan-1(3H)-one]",2.10 ± 0.86,–,1.46 ± 0.54,–
"O=C1OCc2cc3ccc4c(c3cc21)OCO4 [Exemplified compound (19), furo[3′,4′,6,7]naphtho[1,2-d]-1,3-dioxole-9(7H)-one]",2.37 ± 0.26,–,1.98 ± 0.83,–
"[Ca+2].[Cl-].[Cl-] [Positive control (Ca^2+), CaCl2, reference compound]",–,–,–,"Transglutaminase activity ([1]; CaCl2 1.5 mM positive control, control = 1): 1.51 ± 0.20"
Tuberculatin-5″-acetate [Exemplified compound (18)],5.44 ± 0.19,–,2.78 ± 0.19,Transglutaminase activity of isolated HPLC fraction [1]: confirmed to exist; IVL gene amount (Average value in n = 2) [3]: 1.32
